According to patent publication US20140335184A1, “NANOPARTICLE ASSEMBLY, PREPARATION THEREOF, AND ACTIVE MATERIAL DELIVERING COMPOSITE COMPRISING THE SAME” (priority 2012, published 2014):

Assay: Measurement of decrease in fluorescence of drug delivering composite
Assay type: physicochemical
Settings: measured as a function of time, FIGS. 16A and 16B
Text: FIGS. 16A and 16B are graphs illustrating a measurement of a decrease in a fluorescence of the drug delivering composite prepared in Example 6.
FIG. 16A is a graph illustrating the measurement of a change in fluorescence of a doxorubicin solution according to time, and FIG. 16B is a graph illustrating the measurement of changes in fluorescence of the doxorubicin solution and the drug delivering composite according to an embodiment. […] However, a reduction in fluorescence of doxorubicin alone was not observed when measured as a function of time.

**Q.** With COc1cccc2c1C(=O)c1c(O)c3c(c(O)c1C2=O)C[C@@](O)(C(=O)CO)C[C@@H]3O[C@H]1C[C@H](N)[C@H](O)[C@H](C)O1 [doxorubicin] as the compound, how does the Change in fluorescence read?
**A.** Its Change in fluorescence is “not observed”.
